Usually pIC50 stands for the IC50 on a negative log10 scale, so that one unit is a factor of ten. One may read the T/C as the result in the treated group divided by that in the control group, in per cent.

We go through 17 compounds from US11623923B2, “Uracil compound as c-MET/AXL inhibitor” (MEDSHINE DISCOVERY, INC., priority 2017, dated 2023).

The subject of test [1] is MKN45 gastric cancer cell line. Briefly: Assay of inhibitory effect on cell proliferation (CellTiter-Glo). To be noted: Homo sapiens, MKN-45, 72 h, read-out: MKN45 cell IC50. Format: cell-based. The text has this: Assay Example 2: Assay of Inhibitory Effect on Cell Proliferation
1. cell culture: DMEM medium, fetal bovine serum, DPBS
2. cell line: MKN45 gastric cancer cell line
3. detection reagent: live cell detection kit CellTiter-Glo
4. other main materials and reagents: compound dilution plate, middle plate, detection plate, DMSO
The content of ATP directly reflects the number and state of cells. By quantitation of ATP, the number of living cells can be detected. The living cell detection kit contains luciferase and its substrate. Through the participation of ATP, the luciferase can catalyze the substrate to emit a stable light signal. The number of ATP in the cells was determined by detecting the intensity of the signal. The light signal was directly proportional to the number of ATP in the cells, while ATP was positively correlated with the number of living cells, so that the proliferation of cells can be detected. The test plate was analyzed using Envision from PE Inc.
1. Preparation of the Cell Plate
The MKN45 cells were seeded into a 384-well plate with 200 cells per well. The cell plate was placed in a carbon dioxide incubator and incubated overnight.
2. Preparation of Compounds
Compounds were subject to a 5-fold serial dilution with Echo to obtain nine concentrations, in duplicate.
3. Treatment of Cells with Compounds
The compounds were transferred to the cell plate at an initial concentration of […]. The cell plate was placed in a carbon dioxide incubator and incubated for three days.
A Promega CellTiter-Glo reagent was added to the cell plate and incubated at room temperature for 10 minutes to stabilize the luminescence signal. A PerkinElmer Envision multi-label analyzer was used for reading.
In general terms: Cellular ATP, detected with luciferase, serves as a proxy for viable cell number.

Test [2] has as its system Hs746t gastric cancer cells. Briefly: Drug efficacy in a model with subcutaneous xenograft tumor of Hs746t gastric cancer cells. Format: in vivo, BALB/c nude mice. As to conditions: for Tumor volume (Day 0): Day 0, Mean ± SEM; for Tumor volume (Day 20): Day 20, Mean ± SEM. As to the method:
Assay Example 4: Assay of Drug Efficacy in a Model with Subcutaneous Xenograft Tumor of Hs746t Gastric Cancer Cells
Human gastric cancer Hs746t cells were cultured in vitro in monolayer. The culture conditions were DMEM medium plus 10% fetal bovine serum, 100 U/mL penicillin and 100 U/mL streptomycin, 37° C., 5% CO2 incubator. The passaging was carried out by conventional digestion with trypsin-EDTA twice a week. When the cell saturation was 80%-90%, and the number met the requirements, the cells were collected, counted, and inoculated.
(§1) BALB/c nude mice, male, 6-8 weeks old, weighted 18-22 grams.
0.2 mL (2×10^6, cells:Matrigel=1:1) of HS 746T cells were subcutaneously inoculated on the right back of each mouse. When the average tumor volume reached about 100-150 mm^3, administration to each group was started.
Assay index: The assay index is to investigate whether tumor growth is inhibited, delayed or cured. Tumor diameter was measured twice a week with a vernier caliper. The calculation formula of tumor volume is: V=0.5a×b^2, wherein a and b represent the long and short diameters of the tumor, respectively. The anti-tumor efficacy (TGI) of the compound was evaluated by T-C (day) and T/C (%).
Assay results: See Table 4.

In another test the test system is MHCC97H cell. To be noted: read-out: MHCC97H cell IC50; cited from earlier work.
The test system of test [3] is MKN45 gastric cancer cells. The test is described as follows: Drug efficacy in a model with subcutaneous xenograft tumor of MKN45 gastric cancer cells. Type of test: in vivo, BALB/c nude mice. As to conditions: day 14 after administration; for Tumor volume (Day 14): Mean ± SEM. As to the method: Assay Example 3: Assay of Drug Efficacy in a Model with Subcutaneous Xenograft Tumor of MKN45 Gastric Cancer Cells
MKN45 cells were cultured in vitro in monolayer. The culture conditions were RPMI1640 medium plus 10% heat-inactivated fetal bovine serum, 1% penicillin-streptomycin, 37° C., and 5% CO2. The passaging was carried out by conventional digestion with trypsin-EDTA twice a week. When the cells were in the exponential growth phase, the cells were collected, counted, and inoculated.
as §1
0.2 ml of a suspension containing 5×10^6 MKN45 cells was inoculated subcutaneously on the right back of each mouse. When the average volume of the tumor reached about 160 mm^3, administration to each group was started.
Assay index: the assay index is to investigate whether the tumor growth is inhibited, delayed or cured. Tumor diameter was measured twice a week with a vernier caliper. The calculation formula of tumor volume is: V=0.5a×b^2, wherein a and b represent the long and short diameters of the tumor, respectively. The anti-tumor efficacy (TGI) of the compound was evaluated by T-C (day) and T/C (%).
Assay results: See Table 3.

Where [4] appears, read: three days incubation, CellTiter-Glo.

SMILES strings stand for the structures. pIC50: −log10 of the molar value. Read-outs that look alike come from different tables or passages of the source.

Take `O=C(Nc1ccc(Oc2ccnc(NC(=O)N3CCC3)c2)c(F)c1)c1cn(CC2CC2)c(=O)n(-c2ccc(F)cc2)c1=O` [Example 18]: in test [1], the negative-log IC50 (pIC50) was 7.92.
As to `NC(=O)Nc1cc(Oc2ccc(NC(=O)c3cn(CC4CC4)c(=O)n(-c4ccc(F)cc4)c3=O)cc2F)ccn1` [Example 16], the pIC50 in test [1] was 7.29.
In the case of `CC(C)Cn1cc(C(=O)Nc2ccc(Oc3ccnc(N)c3Cl)c(F)c2)c(=O)n(-c2ccc(F)cc2)c1=O` [Example 8], the pIC50 in test [1] (setting [4]) was 6.43.
In the case of `Nc1nccc(Oc2ccc(NC(=O)c3cn(CC(F)F)c(=O)n(-c4ccc(F)cc4)c3=O)cc2F)c1Cl` [Example 9], in test [1], the pIC50 is 6.44.
Consider `CN(C)C(=O)Nc1cc(Oc2ccc(NC(=O)c3cn(CC4CC4)c(=O)n(-c4ccc(F)cc4)c3=O)cc2F)ccn1` [Example 17], for which, in test [2] (1.5 mpk), the TGI is 74.16%, the “Tumor volume (Day 0)” value is 127 ± 12 mm^3, the “T/C (Day 20)” value was determined as 30.68% and the “Tumor volume (Day 20)” value is given as 780 ± 195 mm^3. In test [2] (4.5 mpk), the TGI was 104.82%, the “Tumor volume (Day 0)” value worked out at 127 ± 13 mm^3, the “T/C (Day 20)” value was found to be 0.15% and the “Tumor volume (Day 20)” value stood at 4 ± 2 mm^3. For the same compound, in test [2] (9 mpk), the TGI is 105.02%, the “Tumor volume (Day 0)” value is listed as 127 ± 9 mm^3, the “T/C (Day 20)” value is 0.00% and the “Tumor volume (Day 20)” value was determined as 0 ± 0 mm^3.
In the case of `CN1CCC(COc2cnc(-c3cccc(Cn4nc(-c5cccc(C#N)c5)ccc4=O)c3)nc2)CC1` [Tepotinib], the pIC50 in the test on MHCC97H cell was 8.21.
For the compound `Cc1[nH]c(=O)n(-c2ccc(F)cc2)c(=O)c1C(=O)Nc1ccc(Oc2ccnc(N)c2Cl)c(F)c1` [Example 11], in test [1], the pIC50 is 6.62.
On to `O=C(Nc1ccc(Oc2ccnc(NC(=O)N3CCOCC3)c2)c(F)c1)c1cn(CC2CC2)c(=O)n(-c2ccc(F)cc2)c1=O` [Example 13], for which the pIC50 in test [1] was 7.42.
Consider `Nc1nccc(Oc2ccc(NC(=O)c3cn(CC4CC4(F)F)c(=O)n(-c4ccc(F)cc4)c3=O)cc2F)c1Cl` (stereo not shown) [Example 3], for which the negative logarithm of the IC50 (pIC50) in test [1] (setting [4]) is 7.57.
For the compound `Nc1nccc(Oc2ccc(NC(=O)c3cn(CC4CC4)c(=O)n(-c4ccc(F)cc4)c3=O)cc2F)c1Cl` [Example 5], in test [2] (4.5 mpk), the TGI is given as 104.43%, the “Tumor volume (Day 0)” value is on record as 126 ± 10 mm^3, the “T/C (Day 20)” value came to 0.78% and the “Tumor volume (Day 20)” value is recorded as 20 ± 8 mm^3. In test [2] (9 mpk), the TGI is listed as 105.01%, the “Tumor volume (Day 0)” value is given as 127 ± 10 mm^3, the “T/C (Day 20)” value came to 0.00% and the “Tumor volume (Day 20)” value stood at 0 ± 0 mm^3. In addition, in test [1], the pIC50 is 7.96. Further, in test [3], the T/C turned out to be 15.3%, the TGI came to 96.9% and the “Tumor volume (Day 14)” value worked out at 196 ± 17 mm^3.
For the compound `N#Cc1c(Oc2ccc(NC(=O)c3cn(CC4CC4)c(=O)n(-c4ccc(F)cc4)c3=O)cc2F)ccnc1N` [Example 14], the pIC50 in test [1] was 7.52.
As for `CC(C)n1cc(C(=O)Nc2ccc(Oc3ccnc(N)c3Cl)c(F)c2)c(=O)n(-c2ccc(F)cc2)c1=O` [Example 1], in test [1], the pIC50 is 7.27. For the same compound, in test [3], the T/C is 16.5%, the TGI worked out at 95.1% and the “Tumor volume (Day 14)” value stood at 218 ± 31 mm^3.
Regarding `O=C(Nc1ccc(Oc2ccnc(NC(=O)N3CCCC3)c2)c(F)c1)c1cn(CC2CC2)c(=O)n(-c2ccc(F)cc2)c1=O` [Example 20], in test [1], the negative-log IC50 (pIC50) is 7.54.
For the compound `CCOc1ccn(-c2ccc(F)cc2)c(=O)c1C(=O)Nc1ccc(Oc2ccnc(N)c2Cl)c(F)c1` [BMS777607, reference compound], in test [2] (4.5 mpk), the TGI came to 27.61%, the “Tumor volume (Day 0)” value is 127 ± 11 mm^3, the “T/C (Day 20)” value was 73.58% and the “Tumor volume (Day 20)” value is on record as 1872 ± 355 mm^3. Also, the pIC50 in test [1] (setting [4]) was 6.36.
As to `C=CCn1cc(C(=O)Nc2ccc(Oc3ccnc(N)c3Cl)c(F)c2)c(=O)n(-c2ccc(F)cc2)c1=O` [Example 2], the pIC50 in test [1] is 7.11.
As to `Nc1nccc(Oc2ccc(NC(=O)c3c4n(c(=O)n(-c5ccc(F)cc5)c3=O)CCC4)cc2F)c1Cl` [Example 12], the pIC50 in test [1] (setting [4]) was 6.50.
Regarding `Cc1ccc(C(=O)Nc2ccc(Oc3cc4cnn(C)c4cc3-c3cn[nH]c3)c(F)c2)c(=O)n1-c1ccc(F)cc1` [LY2801653, reference compound], in test [2] (4.5 mpk), the TGI stood at 101.62%, the “Tumor volume (Day 0)” value was 127 ± 12 mm^3, the “T/C (Day 20)” value turned out to be 3.45% and the “Tumor volume (Day 20)” value is 88 ± 13 mm^3.
